Laboratory results published in PubChem BioAssay AID256 (DTP/NCI, 2004).
Where “and” joins values, the source holds several entries; their conditions need not be identical. Equal values may be shown once. Toxic doses and inconclusive results are not listed. Rule for the calls: active = survival T/C of 150% or more; inactive = T/C below 125% in these data.

System: CD2F1 mice, L1210 leukemia ip, survival T/C
Assay: NCI In Vivo Anticancer Drug Screen. Data for tumor model L1210 Leukemia (intraperitoneal) in CD2F1 (CDF1) mice
Settings: higher = longer survival
Summary of the method: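 Mice carrying a transplanted tumor received test compound or vehicle alone. The value is the measurement in the treated group divided by that in the vehicle-treated control group.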

[1] = endpoint: mean survival time, dose: 100.0 mg/kg/injection, schedule: Q01DX001 (ip), vehicle: saline
[2] = endpoint: mean survival time, dose: 200.0 mg/kg/injection, schedule: Q01DX001 (ip), vehicle: saline
[3] = endpoint: mean survival time, dose: 400.0 mg/kg/injection, schedule: Q01DX001 (ip), vehicle: saline
[4] = endpoint: mean survival time, dose: 100.0 mg/kg/injection, schedule: Q04DX003 (ip), vehicle: saline
[5] = endpoint: mean survival time, dose: 200.0 mg/kg/injection, schedule: Q04DX003 (ip), vehicle: saline
[6] = endpoint: mean survival time, dose: 400.0 mg/kg/injection, schedule: Q04DX003 (ip), vehicle: saline
[7] = endpoint: mean survival time, dose: 50.0 mg/kg/injection, schedule: Q01DX009 (ip), vehicle: other
[8] = endpoint: mean survival time, dose: 100.0 mg/kg/injection, schedule: Q01DX009 (ip), vehicle: other
[9] = endpoint: mean survival time, dose: 200.0 mg/kg/injection, schedule: Q01DX009 (ip), vehicle: other
[10] = endpoint: mean survival time, dose: 100.0 mg/kg/injection, schedule: Q04DX003 (ip), vehicle: saline with Tween-80
[11] = endpoint: mean survival time, dose: 200.0 mg/kg/injection, schedule: Q04DX003 (ip), vehicle: saline with Tween-80
[12] = endpoint: mean survival time, dose: 400.0 mg/kg/injection, schedule: Q04DX003 (ip), vehicle: saline with Tween-80
[13] = endpoint: mean survival time, dose: 50.0 mg/kg/injection, schedule: Q04DX003 (ip), vehicle: saline with Tween-80
[14] = endpoint: mean survival time, dose: 100.0 mg/kg/injection, schedule: Q01DX009 (ip), vehicle: saline

Measured: T/C

COC(=O)C1OC(C)(C)OC1C(=O)OC (stereo unspecified)
inactive: endpoint: mean survival time, dose: 1.56 mg/kg/injection, schedule: Q01DX001 (ip), vehicle: saline with Tween-80 103 % of control | endpoint: mean survival time, dose: 3.12 mg/kg/injection, schedule: Q01DX001 (ip), vehicle: saline with Tween-80 100 % of control | endpoint: mean survival time, dose: 6.25 mg/kg/injection, schedule: Q01DX001 (ip), vehicle: saline with Tween-80 95 % of control

CCOC(=O)C1CC2(CC(C(=O)O)C2)C1 (stereo unspecified)
inactive: [1] 97 % of control | [2] 93 % of control | [3] 105 % of control

COc1ccc(SSc2ccc(OC)cc2)cc1
inactive: [1] 100 % of control | [2] 103 % of control | [3] 97 % of control

O=C(O)c1cc(=O)c2ccccc2[nH]1
inactive: endpoint: mean survival time, dose: 50.0 mg/kg/injection, schedule: Q01DX001 (ip), vehicle: saline 93 % of control | [1] 93 % of control | [2] 91 % of control

CCOC(=O)C(CC)(OC(C)=O)C(=O)C[n+]1ccccc1 (stereo unspecified)
inactive: [1] 108 % of control | [4] 101 % of control | [2] 106 % of control | [5] 101 % of control | [3] 106 % of control | [6] 101 % of control

NNc1ncnc2c1cnn2C1OC(CO)C(O)C1O (stereo unspecified)
inactive: endpoint: mean survival time, dose: 12.5 mg/kg/injection, schedule: Q01DX009 (ip), vehicle: other 103 % of control | endpoint: mean survival time, dose: 25.0 mg/kg/injection, schedule: Q01DX009 (ip), vehicle: other 103 % of control | [7] 103 % of control | [8] 110 % of control | [9] 112 % of control | endpoint: mean survival time, dose: 400.0 mg/kg/injection, schedule: Q01DX009 (ip), vehicle: other 89 % of control

CS(C)(O)NC(N)=O
inactive: endpoint: median survival time, dose: 25.0 mg/kg/injection, schedule: Q01DX009 (ip), vehicle: water 93 % of control | endpoint: median survival time, dose: 50.0 mg/kg/injection, schedule: Q01DX009 (ip), vehicle: water 103 % of control | endpoint: median survival time, dose: 100.0 mg/kg/injection, schedule: Q01DX009 (ip), vehicle: water 102 % of control | endpoint: median survival time, dose: 200.0 mg/kg/injection, schedule: Q01DX009 (ip), vehicle: water 91 % of control | endpoint: median survival time, dose: 400.0 mg/kg/injection, schedule: Q01DX009 (ip), vehicle: water 101 % of control

O=c1[nH]c(SCc2ccccc2)nc(-c2ccc(Cl)cc2)c1CCO
inactive: endpoint: mean survival time, dose: 100.0 mg/kg/injection, schedule: Q01DX009 (ip), vehicle: Klucel (hydroxypropylcellulose) (HPC) 87 % of control | endpoint: mean survival time, dose: 200.0 mg/kg/injection, schedule: Q01DX009 (ip), vehicle: Klucel (hydroxypropylcellulose) (HPC) 89 % of control | endpoint: mean survival time, dose: 400.0 mg/kg/injection, schedule: Q01DX009 (ip), vehicle: Klucel (hydroxypropylcellulose) (HPC) 88 % of control

CC(C)(CO)c1ccc(C(c2ccccc2)c2ccccc2)cc1
inactive: [7] 96 % of control | [8] 101 % of control | [9] 96 % of control

CCSC1=NCCCS1
inactive: endpoint: mean survival time, dose: 75.0 mg/kg/injection, schedule: Q01DX001 (ip), vehicle: other 97 % of control | endpoint: mean survival time, dose: 150.0 mg/kg/injection, schedule: Q01DX001 (ip), vehicle: other 98 % of control | endpoint: mean survival time, dose: 300.0 mg/kg/injection, schedule: Q01DX001 (ip), vehicle: other 95 % of control

COc1c(CBr)c(CBr)c(OC)c2ccccc12
inactive: [10] 101 % of control | [11] 100 % of control | [12] 101 % of control

CCCCC1CCCCC1
inactive: [10] 95 % of control | [11] 100 % of control | [12] 90 % of control

O=C1CC(CO)CN1CCc1ccccc1 (stereo unspecified)
inactive: endpoint: mean survival time, dose: 100.0 mg/kg/injection, schedule: Q01DX009 (ip), vehicle: saline with Tween-80 96 % of control | endpoint: mean survival time, dose: 200.0 mg/kg/injection, schedule: Q01DX009 (ip), vehicle: saline with Tween-80 92 % of control | endpoint: mean survival time, dose: 400.0 mg/kg/injection, schedule: Q01DX009 (ip), vehicle: saline with Tween-80 95 % of control

N#C/C(=C\c1ccc([N+](=O)[O-])o1)[N+](=O)[O-]
inactive: endpoint: mean survival time, dose: 25.0 mg/kg/injection, schedule: Q04DX003 (ip), vehicle: saline with Tween-80 104 % of control | [13] 94 % of control | [10] 97 % of control

O=C1c2ccccc2-c2cc([N+](=O)[O-])c(Cl)cc21
inactive: endpoint: mean survival time, dose: 50.0 mg/kg/injection, schedule: Q04DX003 (ip), vehicle: Klucel (hydroxypropylcellulose) (HPC) 91 % of control | endpoint: mean survival time, dose: 100.0 mg/kg/injection, schedule: Q04DX003 (ip), vehicle: Klucel (hydroxypropylcellulose) (HPC) 96 % of control | endpoint: mean survival time, dose: 200.0 mg/kg/injection, schedule: Q04DX003 (ip), vehicle: Klucel (hydroxypropylcellulose) (HPC) 94 % of control

CNC(=O)Nc1ccc(OS(=O)(=O)N(C)C)cc1
inactive: [10] 101 % of control | [11] 101 % of control | [12] 101 % of control

Cc1ccc(N2C(=O)C=CC2=O)cc1
inactive: endpoint: mean survival time, dose: 5.0 mg/kg/injection, schedule: Q01DX009 (ip), vehicle: saline sonified 94 % of control | endpoint: mean survival time, dose: 5.0 mg/kg/injection, schedule: Q04DX003 (ip), vehicle: saline sonified 96 % of control | endpoint: mean survival time, dose: 10.0 mg/kg/injection, schedule: Q04DX003 (ip), vehicle: saline sonified 98 % of control | endpoint: mean survival time, dose: 20.0 mg/kg/injection, schedule: Q01DX009 (ip), vehicle: saline sonified 90 % of control | endpoint: mean survival time, dose: 20.0 mg/kg/injection, schedule: Q04DX003 (ip), vehicle: saline sonified 96 % of control | endpoint: mean survival time, dose: 100.0 mg/kg/injection, schedule: Q01DX009 (ip), vehicle: acetone 88 % of control | endpoint: mean survival time, dose: 200.0 mg/kg/injection, schedule: Q01DX009 (ip), vehicle: acetone 88 % of control | endpoint: mean survival time, dose: 400.0 mg/kg/injection, schedule: Q01DX009 (ip), vehicle: acetone 93 % of control

OCCN1CCSC1=S
inactive: [10] 101 % of control | [11] 97 % of control | [12] 92 % of control

Cc1cc(N)c(O)cc1C
inactive: [14] 96 % of control

COc1cccc2c1C(=O)c1c(O)c3c(c(O)c1C2=O)CC(O)(C(=O)CO)CC3OC1CC(N)C(O)C(C)O1.[Cl][Pt+2][Cl].[NH2-].[NH2-] (stereo unspecified)
active: endpoint: median survival time, dose: 4.0 mg/kg/injection, schedule: Q04DX003 (ip), vehicle: DMSO 152 % of control | endpoint: median survival time, dose: 8.0 mg/kg/injection, schedule: Q04DX003 (ip), vehicle: DMSO 153 % of control and 154 % of control

N=C(N)c1ccccc1
inactive: [1] 94 % of control | [2] 100 % of control | [3] 94 % of control

Nc1ncnc2c1ncn2C(C=O)OC(C=O)CO (stereo unspecified)
inactive: endpoint: mean survival time, dose: 35.0 mg/kg/injection, schedule: Q01DX001 (ip), vehicle: saline 117 % of control

CC(C)OC(=O)Nc1ccc(F)c(C(F)(F)F)c1
inactive: [10] 96 % of control | [11] 96 % of control | [12] 94 % of control

O=C(O)C(O)C(O)C(O)C(O)C(O)CO (stereo unspecified)
inactive: [14] 98 % of control | endpoint: mean survival time, dose: 200.0 mg/kg/injection, schedule: Q01DX009 (ip), vehicle: saline 98 % of control | endpoint: mean survival time, dose: 400.0 mg/kg/injection, schedule: Q01DX009 (ip), vehicle: saline 97 % of control

C[N+](C)(C)CC1CCCC1
inactive: endpoint: mean survival time, dose: 5.0 mg/kg/injection, schedule: Q01DX001 (ip), vehicle: saline 97 % of control | endpoint: mean survival time, dose: 10.0 mg/kg/injection, schedule: Q01DX001 (ip), vehicle: saline 102 % of control | endpoint: mean survival time, dose: 20.0 mg/kg/injection, schedule: Q01DX001 (ip), vehicle: saline 103 % of control | endpoint: mean survival time, dose: 40.0 mg/kg/injection, schedule: Q01DX001 (ip), vehicle: saline 103 % of control

Cc1cc(=O)n(C)c2ccccc12
inactive: [13] 95 % of control | [10] 103 % of control | [11] 97 % of control

O=C1CCC(=O)N1CCC1=NCCc2ccccc21
inactive: [10] 100 % of control | [11] 96 % of control | [12] 100 % of control

CSC#N
inactive: endpoint: mean survival time, dose: 5.0 mg/kg/injection, schedule: Q01DX009 (ip), vehicle: Klucel (hydroxypropylcellulose) (HPC) 102 % of control | endpoint: mean survival time, dose: 10.0 mg/kg/injection, schedule: Q01DX009 (ip), vehicle: Klucel (hydroxypropylcellulose) (HPC) 102 % of control

Cc1c2ccncc2c(C)c2c1[nH]c1ccc(Br)cc12
inactive: endpoint: mean survival time, dose: 50.0 mg/kg/injection, schedule: Q04DX003 (ip), vehicle: saline 101 % of control | [4] 101 % of control | [5] 103 % of control | [6] 103 % of control
